Reference: PubChem BioAssay (NCI)
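Cultured in 96-well plates, cells were exposed to test compound for 48 hours across five concentrations. TGI marks complete inhibition of growth.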

Key:
Assay in all cases: NCI-60 cell line screen, 48 h
[1] = test system: K-562 leukemia
[2] = test system: MDA-MB-435
[3] = test system: ACHN renal
[4] = test system: UACC-257 melanoma
[5] = test system: TK-10 renal
[6] = test system: HOP-62 NSCLC
[7] = test system: SK-MEL-2 melanoma
[8] = test system: SF-268 CNS
[9] = test system: NCI-H226 lung
[10] = test system: NCI/ADR-RES ovarian
[11] = test system: NCI-H522 lung
[12] = test system: OVCAR-4 ovarian
[13] = test system: KM12 colon
[14] = test system: SK-MEL-5 melanoma
[15] = test system: SR leukemia
[16] = test system: MCF7 breast
[17] = test system: OVCAR-3 ovarian
[18] = test system: MALME-3M melanoma
[19] = test system: HL-60(TB) leukemia
[20] = test system: SK-OV-3 ovarian
[21] = test system: LOX IMVI melanoma
[22] = test system: A549 NSCLC
[23] = test system: HCT-15 colon
[24] = test system: MOLT-4 leukemia
[25] = test system: BT-549 breast
[26] = test system: OVCAR-5 ovarian
[27] = test system: RXF 393 renal
[28] = test system: NCI-H23 lung
[29] = test system: CCRF-CEM leukemia
[30] = test system: SN12C renal
[31] = test system: HCC-2998 colon
[32] = test system: HCT-116 colon
[33] = test system: SNB-19 CNS
[34] = test system: PC-3 prostate
[35] = test system: SNB-75 CNS
[36] = test system: UO-31 renal
[37] = test system: SF-295 CNS
[38] = test system: SF-539 CNS
[39] = test system: OVCAR-8 ovarian
[40] = test system: EKVX NSCLC
[41] = test system: CAKI-1 renal
[42] = test system: COLO 205 colon
[43] = test system: MDA-N
[44] = test system: M14 melanoma
[45] = test system: SW-620 colon
[46] = test system: U251 CNS
[47] = test system: DU-145 prostate
[48] = test system: 786-0 renal
[49] = test system: UACC-62 melanoma
[50] = test system: SK-MEL-28 melanoma
[51] = test system: RPMI-8226 leukemia
[52] = test system: T-47D breast
[53] = test system: HT29 colon
[54] = test system: NCI-H460 lung
[55] = test system: HOP-92 NSCLC
[56] = test system: HS 578T breast
[57] = test system: A498 renal
[58] = test system: MDA-MB-231 breast
[59] = test system: IGROV1 ovarian

COc1cc(N2C(=O)C(=O)C3(CCCCC3)C2=O)cc(OC)c1OC
TGI [1]: > 100 µM
TGI [2]: > 100 µM
TGI [3]: > 100 µM
TGI [4]: > 100 µM
TGI [5]: > 100 µM
TGI [6]: > 100 µM
TGI [7]: > 100 µM
TGI [8]: > 100 µM
TGI [9]: > 100 µM
TGI [10]: > 100 µM
TGI [11]: > 100 µM
TGI [12]: > 100 µM
TGI [13]: > 100 µM
TGI [14]: > 100 µM
TGI [15]: > 100 µM
TGI [16]: > 100 µM
TGI [17]: > 100 µM
TGI [18]: > 100 µM
TGI [19]: > 100 µM
TGI [20]: > 100 µM
TGI [21]: > 100 µM
TGI [22]: > 100 µM
TGI [23]: > 100 µM
TGI [24]: > 100 µM
TGI [25]: > 100 µM
TGI [26]: > 100 µM
TGI [27]: > 100 µM
TGI [28]: > 100 µM
TGI [29]: > 100 µM
TGI [30]: > 100 µM
TGI [31]: > 100 µM
TGI [32]: > 100 µM
TGI [33]: > 100 µM
TGI [34]: > 100 µM
TGI [35]: > 100 µM
TGI [36]: > 100 µM
TGI [37]: > 100 µM
TGI [38]: > 100 µM
TGI [39]: > 100 µM
TGI [40]: > 100 µM
TGI [41]: > 100 µM
TGI [42]: > 100 µM
TGI [43]: > 100 µM
TGI [44]: > 100 µM
TGI [45]: > 100 µM
TGI [46]: > 100 µM
TGI [47]: > 100 µM
TGI [48]: > 100 µM
TGI [49]: > 100 µM
TGI [50]: > 100 µM
TGI [51]: > 100 µM
TGI [52]: > 100 µM
TGI [53]: > 100 µM

COc1cc(/C=C2/SC(c3ccccc3)N(c3cccc(NC(C)=O)c3)C2=O)cc(OC)c1OC (centres undefined)
TGI [1]: > 100 µM
TGI [2]: > 100 µM
TGI [3]: > 100 µM
TGI [4]: > 100 µM
TGI [5]: > 100 µM
TGI [6]: > 100 µM
TGI [8]: > 100 µM
TGI [9]: > 100 µM
TGI [10]: > 100 µM
TGI [11]: 73.6 µM
TGI [12]: > 100 µM
TGI [13]: > 100 µM
TGI [14]: > 100 µM
TGI [15]: > 100 µM
TGI [16]: > 100 µM
TGI [17]: > 100 µM
TGI [18]: > 100 µM
TGI [19]: > 100 µM
TGI [20]: > 100 µM
TGI [21]: > 100 µM
TGI [54]: > 100 µM
TGI [55]: > 100 µM
TGI [22]: > 100 µM
TGI [23]: > 100 µM
TGI [24]: > 100 µM
TGI [25]: > 100 µM
TGI [26]: > 100 µM
TGI [27]: > 100 µM
TGI [28]: > 100 µM
TGI [30]: > 100 µM
TGI [56]: > 100 µM
TGI [31]: > 100 µM
TGI [32]: > 100 µM
TGI [33]: > 100 µM
TGI [36]: > 100 µM
TGI [37]: > 100 µM
TGI [38]: > 100 µM
TGI [39]: > 100 µM
TGI [40]: > 100 µM
TGI [41]: > 100 µM
TGI [42]: > 100 µM
TGI [43]: > 100 µM
TGI [44]: > 100 µM
TGI [45]: > 100 µM
TGI [47]: > 100 µM
TGI [57]: > 100 µM
TGI [48]: > 100 µM
TGI [49]: > 100 µM
TGI [50]: > 100 µM
TGI [51]: > 100 µM
TGI [52]: > 100 µM
TGI [53]: > 100 µM

CC(C)/C(Cl)=N\OC(=O)Nc1ccc(F)cc1
TGI [1]: 3.45 µM
TGI [3]: 7.7 µM
TGI [4]: 28.3 µM
TGI [5]: 9.06 µM
TGI [6]: 33.4 µM
TGI [7]: 32.8 µM
TGI [8]: 56.1 µM
TGI [9]: 36.9 µM
TGI [58]: 5.17 µM
TGI [10]: > 48.5 µM
TGI [11]: 3.02 µM
TGI [13]: 35.7 µM
TGI [14]: 26.4 µM
TGI [15]: 4.33 µM
TGI [16]: 14.3 µM
TGI [17]: 21.6 µM
TGI [18]: 3.91 µM
TGI [19]: 3.72 µM
TGI [20]: 31.7 µM
TGI [21]: 5.73 µM
TGI [54]: 36.1 µM
TGI [22]: 35.9 µM
TGI [23]: 12.9 µM
TGI [24]: 4.2 µM
TGI [25]: 24.2 µM
TGI [26]: 30.4 µM
TGI [27]: 29.9 µM
TGI [28]: 38.4 µM
TGI [29]: 3.62 µM
TGI [30]: 16.7 µM
TGI [56]: 71.9 µM
TGI [31]: 32 µM
TGI [32]: 22.6 µM
TGI [33]: 39.3 µM
TGI [34]: 31.4 µM
TGI [36]: 10.5 µM
TGI [37]: 27.8 µM
TGI [38]: 32.8 µM
TGI [59]: 31.7 µM
TGI [39]: 25.6 µM
TGI [40]: 11.3 µM
TGI [42]: 4.42 µM
TGI [43]: 23.2 µM
TGI [44]: 16.1 µM
TGI [45]: 3.23 µM
TGI [46]: 29 µM
TGI [47]: 30.7 µM
TGI [57]: 28.5 µM
TGI [48]: 9.55 µM
TGI [49]: 40 µM
TGI [50]: 11.5 µM
TGI [51]: 4.19 µM
TGI [52]: 24.1 µM
TGI [53]: 4.6 µM
